From US20230116703A1, “NOVEL ERGOLINES AND METHODS OF TREATING MOOD DISORDERS” (priority 2021, published 2023)
pEC50: −log10 of the molar value. Where two headings read alike, the source gives them in different places.

Columns and labels:
5-HT2A receptor [1] = target: T1, 5-HT2A receptor (Homo sapiens, UniProt P28223); test: biochemical; format: binding; details: 1 nM [^3H]ketanserin, HEK293 stable cell line; read-out: 5-HT2A Receptor Ki (nM) ([^3H]ketanserin)
T1 construct: host or cells: HEK293
In short: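 Affinity was measured in radioligand binding experiments using [^3H]ketanserin as the labelled ligand, following methods adapted from published procedures.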

[2] = Metabolic stability in human liver microsomes (HLM); format: in vitro ADME; details: for t1/2: 1 μM, 0.50 mg protein per mL; for microsomal CLint at 1 μM: both sexes, human, pooled human liver microsomes, pH 7.4, 0.50 mg protein per mL
From the text: HLM Stability. Pooled HLM from adult male and female donors (Corning 452117) were used.

5-HT2A receptor [3] = target: T1, 5-HT2A receptor; test: PathHunter beta-arrestin recruitment assay at 5-HT2A; format: cell-based
Protocol: The degree of arrestin bias varied substantially across the other compounds tested as well.
Arrestin Functional Assay at 5-HT2A. Recruitment of beta-arrestin was determined using a PathHunter assay at Eurofins DiscoverX (Fremont, Calif.) according to their standard protocols. PathHunter GPCR beta-arrestin assays take advantage of DiscoverX's proprietary Enzyme Fragment Complementation technology. The GPCR is fused in frame with a small enzyme donor fragment ProLink™ (PK) and co-expressed in cells stably expressing a fusion protein of beta-arrestin and the larger, N-terminal deletion mutant of beta-galactosidase. Activation of the GPCR (5-HT2A receptor in this case) stimulates binding of beta-arrestin to the PK-tagged GPCR and forces complementation of the two enzyme fragments, resulting in the formation of an active beta-galactosidase enzyme. This interaction leads to an increase in enzyme activity that can be measured using chemiluminescent PathHunter Detection Reagents. Briefly, PathHunter cells expressing 5-HT2A receptors were seeded in a volume of 20 μL into 384-well plates and incubated at 37° C. for the appropriate time prior to testing. […] Plates were then imaged on a microplate reader and the agonist activity was calculated using the following formula: % Activity=100%×(mean RLU of test sample−mean RLU of vehicle control)/(mean MAX control ligand−mean RLU of vehicle control), where RLU=relative light units.

human 5-HT2C receptor = target: T2, human 5-HT2C receptor (Homo sapiens, UniProt P28335); test: cell-based; details: Ca^2+ flux, agonist
T2 sequence (P28335 33-458): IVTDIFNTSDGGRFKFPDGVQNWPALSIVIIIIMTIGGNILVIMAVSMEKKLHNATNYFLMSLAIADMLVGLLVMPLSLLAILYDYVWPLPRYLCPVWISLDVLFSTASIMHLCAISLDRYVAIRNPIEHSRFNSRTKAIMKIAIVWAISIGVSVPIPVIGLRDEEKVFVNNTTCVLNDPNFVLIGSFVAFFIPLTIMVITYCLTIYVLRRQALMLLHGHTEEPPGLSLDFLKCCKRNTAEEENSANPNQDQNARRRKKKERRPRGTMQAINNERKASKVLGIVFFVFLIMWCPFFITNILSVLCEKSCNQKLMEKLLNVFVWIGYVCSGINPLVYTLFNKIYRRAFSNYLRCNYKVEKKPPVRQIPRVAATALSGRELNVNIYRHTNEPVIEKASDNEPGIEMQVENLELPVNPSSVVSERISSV

5-HT2A receptor [4] = target: T1, 5-HT2A receptor; test: cell-based; format: cell-based; details: Ca^2+ flux, agonist; read-out: 5-HT2A EC50
5-HT2B receptor = target: T3, 5-HT2B receptor (Homo sapiens, UniProt P41595); test: cell-based; details: Ca^2+ flux, agonist; read-out: 5-HT2B EC50
T3 construct: host or cells: HEK293

5-HT1A receptor = target: T4, 5-HT1A receptor (Homo sapiens, UniProt P08908); test: cell-based
T4 construct: host or cells: CHO cells
T4 sequence (P08908 1-422): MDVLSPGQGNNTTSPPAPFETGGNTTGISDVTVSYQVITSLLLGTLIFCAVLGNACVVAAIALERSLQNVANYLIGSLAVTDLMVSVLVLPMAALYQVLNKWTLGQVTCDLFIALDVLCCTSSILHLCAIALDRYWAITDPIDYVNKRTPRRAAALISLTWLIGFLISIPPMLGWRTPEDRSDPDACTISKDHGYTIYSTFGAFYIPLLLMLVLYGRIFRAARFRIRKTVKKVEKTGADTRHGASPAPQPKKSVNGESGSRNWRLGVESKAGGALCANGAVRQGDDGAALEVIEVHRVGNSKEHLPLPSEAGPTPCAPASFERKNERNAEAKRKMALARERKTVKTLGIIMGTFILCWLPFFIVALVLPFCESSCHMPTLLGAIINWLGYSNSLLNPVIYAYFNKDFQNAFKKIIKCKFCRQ

[5] = Metabolic stability in rat liver microsomes (RLM); details: for t1/2: RLM, 0.50 mg protein per mL; for microsomal CLint at 1 μM: both, rat, pooled rat liver microsomes, pH 7.4
[6] = Metabolic stability in mouse liver microsomes (MLM); format: in vitro ADME; details: 0.50 mg protein per mL; for t1/2: MLM (CD-1), 1 μM; for microsomal CLint at 1 μM: mouse, pooled mouse liver microsomes, pH 7.4, MLM (CD-1)
From the text: MLM Stability Pooled MLM from CD-1 mice (BIOIVT M00501) were used.

C57BL/6 mice = test: Head twitch response (HTR) in mice; format: in vivo, mouse; details: mouse HTR, SC
Protocol: Agonists of the 5-HT2A receptor are well known to induce this effect in rodents and the potency of this HTR is correlated with hallucinogenic potency in humans.
Animals. Adult male C57BL/6 mice, aged 6-8 weeks (body weight 20-25 g) were used in this experiment. Animals were housed under controlled temperatures and 12-hour light/dark cycles (lights on between 07:00-19:00 h), with ad libitum food and water. This study was carried out in strict accordance with the requirements of the Committee for the Purpose of Control and Supervision of Experiments on Animals (CPCSEA), India. All efforts were made to minimize suffering.
Drugs and Drug Administration. Compound 1 was synthesized as described above. It was administered subcutaneously (SC) dissolved in saline vehicle at a volume of 10 mL/kg. Five doses were tested, with n=6 animals/group. Doses were calculated on the basis of the freebase.
Procedure. Mice were administered one dose of the drug and immediately placed into a small open field for behavioral observation. Animals were observed continuously for 20 mins and the number of head twitches (HTs) were counted by an observer blind to the treatment condition.
Statistical Analysis. The data points shown are the mean±standard error of the mean (SEM). Analysis was performed using GraphPad Prism 6. Curves were fit using a non-linear gaussian distribution to calculate ED50 and Emax values.
Additional disclosed compounds were tested in the mouse head twitch response (HTR) assay according to the procedure described in Example 43. […] Lastly, compounds with much larger benzyl and phenethyl substituents on the amine nitrogen (e.g., 10 and 11) were low efficacy in this assay, consistent with their lower maximal efficacy in the arrestin functional assay (see Example 41).

[7] = Ca^2+ flux, agonist, read-out: 5-HT1A EC50

T3 sequence (P41595 whole entry): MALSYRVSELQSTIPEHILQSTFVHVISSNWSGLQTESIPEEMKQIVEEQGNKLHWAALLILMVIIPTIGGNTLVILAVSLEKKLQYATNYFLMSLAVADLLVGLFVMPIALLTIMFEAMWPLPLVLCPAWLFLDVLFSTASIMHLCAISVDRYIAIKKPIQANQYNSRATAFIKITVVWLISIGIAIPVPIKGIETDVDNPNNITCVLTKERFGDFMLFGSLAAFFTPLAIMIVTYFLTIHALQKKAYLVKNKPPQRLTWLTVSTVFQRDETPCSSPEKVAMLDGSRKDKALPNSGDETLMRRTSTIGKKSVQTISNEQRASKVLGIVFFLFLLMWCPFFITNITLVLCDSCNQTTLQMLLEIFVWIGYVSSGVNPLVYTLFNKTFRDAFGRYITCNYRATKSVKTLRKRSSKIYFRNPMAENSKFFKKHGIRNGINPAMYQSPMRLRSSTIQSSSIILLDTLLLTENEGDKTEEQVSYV
T1 sequence (P28223 whole entry): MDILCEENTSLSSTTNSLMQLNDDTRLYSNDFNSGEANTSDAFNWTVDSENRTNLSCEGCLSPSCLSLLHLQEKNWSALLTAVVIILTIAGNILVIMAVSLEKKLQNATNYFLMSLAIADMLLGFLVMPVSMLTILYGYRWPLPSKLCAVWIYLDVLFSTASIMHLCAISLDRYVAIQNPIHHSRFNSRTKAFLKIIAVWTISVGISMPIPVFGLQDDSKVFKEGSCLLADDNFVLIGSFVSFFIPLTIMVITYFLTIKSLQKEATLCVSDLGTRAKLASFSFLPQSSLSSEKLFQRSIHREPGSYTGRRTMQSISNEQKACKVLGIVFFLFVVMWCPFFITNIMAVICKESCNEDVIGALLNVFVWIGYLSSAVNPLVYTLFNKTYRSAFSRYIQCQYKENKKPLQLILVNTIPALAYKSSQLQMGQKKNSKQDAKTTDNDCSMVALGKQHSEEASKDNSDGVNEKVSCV

## C=CCN1C[C@@H](C(=O)N[C@H](C)CC)C=C2c3cccc4[nH]cc(c34)C[C@H]21 [Compound 8a, (6aR,9S)-7-allyl-N—((R)-sec-butyl)-4,6,6a,7,8,9-hexahydroindolo[4,3-fg]quinoline-9-carboxamide]
5-HT2A receptor [1]
  Ki: > 1230 nM
[2]
  t1/2: 3.4 min
  microsomal CLint at 1 μM: 409 µL/min/mg
5-HT2A receptor [3]
  pEC50: 5.93
Human 5-HT2C receptor
  pEC50: < 5.00
5-HT2A receptor [4]
  pEC50: 6.40
5-HT2B receptor
  pEC50: 5.45
5-HT1A receptor; [7]
  pEC50: 5.81
[5]
  t1/2: 1.7 min
  microsomal CLint at 1 μM: 835 µL/min/mg
[6]
  t1/2: 0.8 min
  microsomal CLint at 1 μM: 1660 µL/min/mg

## CC[C@@H](C)NC(=O)[C@H]1C=C2c3cccc4[nH]cc(c34)C[C@H]2N(C)C1 [Int8a, (6aR,9S)—N—((R)-sec-butyl)-7-methyl-4,6,6a,7,8,9-hexahydroindolo[4,3-fg]quinoline-9-carboxamide]
5-HT2A receptor [1]
  Ki: 84.3 nM
[2]
  t1/2: 11.1 min
  microsomal CLint at 1 μM: 125 µL/min/mg
5-HT2A receptor [3]
  pEC50: 7.71
Human 5-HT2C receptor
  pEC50: 6.80
5-HT2A receptor [4]
  pEC50: 6.75
5-HT2B receptor
  pEC50: < 5.00
5-HT1A receptor; [7]
  pEC50: 6.79
[5]
  t1/2: 3.5 min
  microsomal CLint at 1 μM: 394 µL/min/mg
[6]
  t1/2: 1.6 min
  microsomal CLint at 1 μM: 843 µL/min/mg

## CCN(CC)C(=O)[C@H]1C=C2c3cccc4[nH]cc(c34)C[C@H]2N(CCCF)C1 [Compound 2a, (6aR,9S)—N,N-diethyl-7-(3-fluoropropyl)-4,6,6a,7,8,9-hexahydroindolo[4,3-fg]quinoline-9-carboxamide]
5-HT2A receptor [1]
  Ki: 115 nM
[2]
  t1/2: 17.018 min
  microsomal CLint at 1 μM: 81.4 µL/min/mg
5-HT2A receptor [3]
  pEC50: 7.30
Human 5-HT2C receptor
  pEC50: 6.59
5-HT2A receptor [4]
  pEC50: 6.77
5-HT2B receptor
  pEC50: 5.66
5-HT1A receptor; [7]
  pEC50: 6.27
[5]
  t1/2: 9.673 min
  microsomal CLint at 1 μM: 143 µL/min/mg
[6]
  t1/2: 1.776 min
  microsomal CLint at 1 μM: 780 µL/min/mg

## CC[C@@H](C)NC(=O)[C@H]1C=C2c3cccc4[nH]cc(c34)C[C@H]2N(CC)C1 [Compound 5a, (6aR,9S)—N—((R)-sec-butyl)-7-ethyl-4,6,6a,7,8,9-hexahydroindolo[4,3-fg]quinoline-9-carboxamide]
5-HT2A receptor [1]
  Ki: 74.5 nM
[2]
  t1/2: 5.5 min
  microsomal CLint at 1 μM: 251 µL/min/mg
5-HT2A receptor [3]
  pEC50: 7.18
Human 5-HT2C receptor
  pEC50: 6.09
5-HT2A receptor [4]
  pEC50: 6.93
5-HT2B receptor
  pEC50: 5.60
5-HT1A receptor; [7]
  pEC50: 6.88
[5]
  t1/2: 3.1 min
  microsomal CLint at 1 μM: 453 µL/min/mg
[6]
  t1/2: 1.7 min
  microsomal CLint at 1 μM: 834 µL/min/mg

## C[C@H]1C[C@H](C)N1C(=O)[C@@H]1C=C2c3cccc4[nH]cc(c34)C[C@H]2N(C)C1 [Int11, ((2S,4S)-2,4-dimethylazetidin-1-yl)((6aR, 9R)-7-methyl-4,6,6a,7,8,9-hexahydroindolo[4,3-fg]quinolin-9-yl)methanone]
5-HT2A receptor [1]
  Ki: 2.22 nM
[2]
  t1/2: 25.7 min
  microsomal CLint at 1 μM: 53.9 µL/min/mg
5-HT2A receptor [3]
  pEC50: 8.80
5-HT2A receptor [3]; 5-HT2A beta-arrestin
  Emax: < 60%
  agonist type in arrestin recruitment assay (in words): partial agonists
5-HT2A receptor [4]
  pEC50: 7.43
5-HT2B receptor
  pEC50: 7.02
5-HT1A receptor
  pEC50: 8.05
C57BL/6 mice; 20 min, 20 min observation, curve fit, poor in some cases, read-out: ED50 (95% CI)
  ED50: 0.0154 mg/kg
C57BL/6 mice
  Most Efficacious Dose: 0.1 mg/kg
C57BL/6 mice; 20 min observation, curve fit, poor in some cases
  Emax (95% CI): 10.93 (9.181-12.76)
[5]
  t1/2: 54.9 min
  microsomal CLint at 1 μM: 25.3 µL/min/mg
[6]
  t1/2: 13.9 min
  microsomal CLint at 1 μM: 100 µL/min/mg

## CCCN1C[C@@H](C(=O)N[C@H](C)CC)C=C2c3cccc4[nH]cc(c34)C[C@H]21 [Compound 3a, (6aR,9S)—N—((R)-sec-butyl)-7-propyl-4,6,6a,7,8,9-hexahydroindolo[4,3-fg]quinoline-9-carboxamide]
5-HT2A receptor [1]
  Ki: 27.6 nM
[2]
  t1/2: 2.2 min
  microsomal CLint at 1 μM: 63.4 µL/min/mg
5-HT2A receptor [3]
  pEC50: 7.27
Human 5-HT2C receptor
  pEC50: 6.88
5-HT2A receptor [4]
  pEC50: 6.84
5-HT2B receptor
  pEC50: 5.74
5-HT1A receptor; [7]
  pEC50: 6.81
[5]
  t1/2: 1.4 min
  microsomal CLint at 1 μM: 960 µL/min/mg
[6]
  t1/2: 0.6 min
  microsomal CLint at 1 μM: 2490 µL/min/mg

## CCC[C@@H](C)NC(=O)[C@H]1C=C2c3cccc4[nH]cc(c34)C[C@H]2N(C)C1 [Int17a, (6aR,9S)-7-methyl-N—((R)-pentan-2-yl)-4,6,6a,7,8,9-hexahydroindolo[4,3-fg]quinoline-9-carboxamide]
5-HT2A receptor [1]
  Ki: 41.3 nM
[2]
  t1/2: 4.578 min
  microsomal CLint at 1 μM: 303 µL/min/mg
5-HT2A receptor [3]
  pEC50: 7.12
Human 5-HT2C receptor
  pEC50: 6.02
5-HT2A receptor [4]
  pEC50: 6.37
5-HT2B receptor
  pEC50: < 5.00
5-HT1A receptor; [7]
  pEC50: 6.58
[5]
  t1/2: 1.961 min
  microsomal CLint at 1 μM: 707 µL/min/mg
[6]
  t1/2: 1.576 min
  microsomal CLint at 1 μM: 880 µL/min/mg

## CCC(CC)NC(=O)[C@H]1C=C2c3cccc4[nH]cc(c34)C[C@H]2N(C)C1 [Int14a, (6aR,9S)-7-methyl-N-(pentan-3-yl)-4,6,6a,7,8,9-hexahydroindolo[4,3-fg]quinoline-9-carboxamide]
5-HT2A receptor [1]
  Ki: 56.2 nM
[2]
  t1/2: 3.35 min
  microsomal CLint at 1 μM: 414 µL/min/mg
5-HT2A receptor [3]
  pEC50: 7.45
Human 5-HT2C receptor
  pEC50: 6.29
5-HT2A receptor [4]
  pEC50: 6.33
5-HT2B receptor
  pEC50: < 5.00
5-HT1A receptor
  pEC50: 5.81
[5]
  t1/2: 1.8 min
  microsomal CLint at 1 μM: 770 µL/min/mg
[6]
  t1/2: 1.699 min
  microsomal CLint at 1 μM: 816 µL/min/mg
